Experiments:
[1] = biological target: Histamine H2 receptor (Homo sapiens, UniProt P25021); assay type: cell membranes, CHO-K1, Membrane; note: in other assays of this panel Not Active means under 50% inhibition at 10 µM
[2] = biological target: Tyrosine-protein kinase Fyn (Homo sapiens, UniProt P06241); assay: biochemical; assay type: cell-based, Insect cells;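 note: enzymatic inhibition of Fyn kinase activity measured with Poly(Glu:Tyr) as the phosphorylation substrate; in other assays of this panel Not Active means under 50% inhibition at 10 µM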
Tyrosine-protein kinase Fyn, sequence (P06241 whole entry): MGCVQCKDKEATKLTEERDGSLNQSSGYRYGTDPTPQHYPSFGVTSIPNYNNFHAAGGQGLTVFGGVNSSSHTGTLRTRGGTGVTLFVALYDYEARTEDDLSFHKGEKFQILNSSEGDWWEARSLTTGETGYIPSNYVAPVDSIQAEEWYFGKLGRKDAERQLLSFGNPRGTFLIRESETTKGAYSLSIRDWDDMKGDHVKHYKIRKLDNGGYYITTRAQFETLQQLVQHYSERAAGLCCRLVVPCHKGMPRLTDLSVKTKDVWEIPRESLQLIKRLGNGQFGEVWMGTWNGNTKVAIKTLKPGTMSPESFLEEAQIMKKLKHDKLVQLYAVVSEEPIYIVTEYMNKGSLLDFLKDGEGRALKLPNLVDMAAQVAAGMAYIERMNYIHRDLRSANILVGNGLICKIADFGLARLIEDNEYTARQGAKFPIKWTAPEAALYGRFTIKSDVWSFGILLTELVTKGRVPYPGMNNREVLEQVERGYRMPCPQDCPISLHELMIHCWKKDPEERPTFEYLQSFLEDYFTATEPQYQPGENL

[3] = biological target: T1, Alpha-1D adrenergic receptor (Homo sapiens, UniProt P25100); assay type: cell membranes, HEK293, Membrane; conditions: hek293; note: in other assays of this panel Not Active means under 50% inhibition at 10 µM
T1 sequence (P25100 whole entry): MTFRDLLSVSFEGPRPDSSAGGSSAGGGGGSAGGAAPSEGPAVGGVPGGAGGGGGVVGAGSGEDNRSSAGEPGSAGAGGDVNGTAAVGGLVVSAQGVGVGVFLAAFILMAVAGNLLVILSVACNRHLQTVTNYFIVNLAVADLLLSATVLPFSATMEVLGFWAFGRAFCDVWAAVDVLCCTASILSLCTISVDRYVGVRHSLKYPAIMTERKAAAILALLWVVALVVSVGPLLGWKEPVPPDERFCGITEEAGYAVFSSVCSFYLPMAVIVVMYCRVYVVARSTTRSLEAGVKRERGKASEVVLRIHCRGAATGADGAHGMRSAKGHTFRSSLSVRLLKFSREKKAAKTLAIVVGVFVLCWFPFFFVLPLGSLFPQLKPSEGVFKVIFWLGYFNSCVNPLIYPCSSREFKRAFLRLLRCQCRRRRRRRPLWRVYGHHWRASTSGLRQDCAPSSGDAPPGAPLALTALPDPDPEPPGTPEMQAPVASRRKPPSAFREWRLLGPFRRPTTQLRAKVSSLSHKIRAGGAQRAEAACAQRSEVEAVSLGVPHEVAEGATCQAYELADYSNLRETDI

[4] = biological target: T2, Cholecystokinin receptor type A (Homo sapiens, UniProt P32238); assay type: cell membranes, Membrane; conditions: 1321-n1; note: in other assays of this panel Not Active means under 50% inhibition at 10 µM
T2 sequence (P32238 whole entry): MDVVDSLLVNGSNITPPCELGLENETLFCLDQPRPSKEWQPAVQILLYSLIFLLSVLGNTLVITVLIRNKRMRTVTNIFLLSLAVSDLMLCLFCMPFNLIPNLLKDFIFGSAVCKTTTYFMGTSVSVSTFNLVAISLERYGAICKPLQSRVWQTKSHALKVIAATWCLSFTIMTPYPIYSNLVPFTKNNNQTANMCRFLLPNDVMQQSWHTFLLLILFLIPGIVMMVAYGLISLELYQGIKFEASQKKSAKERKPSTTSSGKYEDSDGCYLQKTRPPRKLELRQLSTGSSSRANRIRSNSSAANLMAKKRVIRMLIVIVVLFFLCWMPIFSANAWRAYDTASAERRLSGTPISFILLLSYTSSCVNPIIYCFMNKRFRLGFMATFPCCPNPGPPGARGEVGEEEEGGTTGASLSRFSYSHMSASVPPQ

[5] = biological target: T3, Alpha-1A adrenergic receptor (Rattus norvegicus, UniProt P43140); assay: DRUGMATRIX: Alpha-1A adrenergic receptor radioligand binding (ligand: prazosin); assay type: cell membranes, Wistar, Submaxillary gland, Membrane; conditions: Not Active = under 50% inhibition at 10 µM
T3 sequence (P43140 whole entry): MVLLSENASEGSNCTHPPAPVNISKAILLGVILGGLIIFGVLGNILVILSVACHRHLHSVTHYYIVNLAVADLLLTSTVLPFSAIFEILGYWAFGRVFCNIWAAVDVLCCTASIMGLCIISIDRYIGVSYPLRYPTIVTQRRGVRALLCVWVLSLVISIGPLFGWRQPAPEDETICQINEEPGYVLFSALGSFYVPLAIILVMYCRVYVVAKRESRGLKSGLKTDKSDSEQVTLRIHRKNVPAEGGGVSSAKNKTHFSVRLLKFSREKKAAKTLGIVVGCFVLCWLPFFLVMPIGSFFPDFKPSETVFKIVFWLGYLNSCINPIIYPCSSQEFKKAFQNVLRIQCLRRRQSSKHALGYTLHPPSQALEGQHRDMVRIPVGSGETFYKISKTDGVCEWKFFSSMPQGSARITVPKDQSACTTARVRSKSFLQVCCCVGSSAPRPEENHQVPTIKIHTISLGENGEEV

[6] = biological target: Matrix metalloproteinase-9 (Homo sapiens, UniProt P14780); assay type: cell-based
Matrix metalloproteinase-9, sequence (P14780 whole entry): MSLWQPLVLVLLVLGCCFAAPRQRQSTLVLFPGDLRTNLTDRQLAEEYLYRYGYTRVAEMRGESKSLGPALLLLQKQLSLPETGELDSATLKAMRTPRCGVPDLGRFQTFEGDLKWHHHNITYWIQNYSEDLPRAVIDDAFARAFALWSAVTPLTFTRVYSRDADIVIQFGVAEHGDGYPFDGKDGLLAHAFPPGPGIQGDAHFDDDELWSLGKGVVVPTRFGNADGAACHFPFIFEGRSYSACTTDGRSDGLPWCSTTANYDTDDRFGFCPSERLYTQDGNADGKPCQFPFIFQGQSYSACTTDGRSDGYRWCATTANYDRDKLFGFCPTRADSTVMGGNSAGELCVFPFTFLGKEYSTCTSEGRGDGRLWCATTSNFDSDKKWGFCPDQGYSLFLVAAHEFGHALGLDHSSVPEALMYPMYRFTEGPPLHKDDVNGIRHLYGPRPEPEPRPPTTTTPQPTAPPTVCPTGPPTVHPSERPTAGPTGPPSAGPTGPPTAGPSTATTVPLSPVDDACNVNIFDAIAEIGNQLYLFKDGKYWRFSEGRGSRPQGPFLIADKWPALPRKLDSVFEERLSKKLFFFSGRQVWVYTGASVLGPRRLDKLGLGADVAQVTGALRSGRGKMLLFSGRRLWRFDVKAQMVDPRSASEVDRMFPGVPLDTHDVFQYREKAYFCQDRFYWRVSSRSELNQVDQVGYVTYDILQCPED

Histamine H2 receptor, sequence (P25021 whole entry): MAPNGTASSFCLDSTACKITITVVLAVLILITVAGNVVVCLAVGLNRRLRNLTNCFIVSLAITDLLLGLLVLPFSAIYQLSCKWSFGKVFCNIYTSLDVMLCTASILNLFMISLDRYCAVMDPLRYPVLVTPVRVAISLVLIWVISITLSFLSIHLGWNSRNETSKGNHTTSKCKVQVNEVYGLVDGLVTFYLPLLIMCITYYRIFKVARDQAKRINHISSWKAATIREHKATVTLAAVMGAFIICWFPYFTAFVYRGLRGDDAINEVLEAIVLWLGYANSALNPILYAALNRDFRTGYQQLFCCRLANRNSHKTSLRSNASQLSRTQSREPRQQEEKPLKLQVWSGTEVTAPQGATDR

Compound	IC50 ([1]; cho-k1)	IC50 ([2]; insect cells)	IC50 [3]	IC50 [4]	IC50 [5]	IC50 [6]	IC50 ([1]; read-out: IC50) [nM]	Ki ([1]; read-out: Ki) [nM]	IC50 ([2]; read-out: IC50) [nM]	Ki ([1]; cho-k1)	IC50 ([2]; insect cells, read-out: IC50) [nM]	Ki [3]	Ki [4]	Ki [5]	Ki [6]	Ki ([2]; insect cells)
O=C(O)c1ccccc1O [SALICYLIC ACID]	Not Active	Not Active	Not Active	Not Active	Not Active	Not Active										
C[S+]([O-])c1ccc(-c2nc(-c3ccncc3)c(-c3ccc(F)cc3)[nH]2)cc1 (stereo not given) [SB-203580]	Not Active		Not Active	Not Active	Not Active	Not Active										
CC1CCC(NC(=O)N(CCCl)N=O)CC1 (stereo not given) [SEMUSTINE]	Not Active	Not Active	Not Active	Not Active	Not Active	Not Active										
O=C1C[C@@H]2OCC=C3CN4CC[C@]56c7ccccc7N1[C@H]5[C@H]2[C@H]3C[C@H]46 [STRYCHNINE]	Not Active	Not Active	Not Active	Not Active	Not Active	Not Active										
C[N+](C)(C)CCOC(=O)CCC(=O)OCC[N+](C)(C)C.[Cl-].[Cl-] [SUCCINYLCHOLINE CHLORIDE]	Not Active	Not Active	Not Active	Not Active	Not Active	Not Active										
Nc1ccc(S(=O)(=O)NC(=O)c2ccccc2)cc1 [SULFABENZAMIDE]	Not Active	Not Active	Not Active	Not Active	Not Active	Not Active										
CCCCCCCCNC(C)C(O)c1ccc(SC(C)C)cc1 (stereo not given) [SULOCTIDIL]			Not Active	Not Active	Not Active	Not Active	108	88.5	722							
O=c1[nH]c(=O)n(C2CCCO2)cc1F (stereo not given) [TEGAFUR]	Not Active	Not Active	Not Active	Not Active	Not Active	Not Active										
CC(=N)S [THIOACETAMIDE]	Not Active	Not Active	Not Active	Not Active	Not Active	Not Active										
Cc1ccc(C(=O)c2ccc(CC(=O)O)n2C)cc1 [TOLMETIN]	Not Active	Not Active	Not Active	Not Active	Not Active	Not Active										
CC(=O)OCC(COC(C)=O)OC(C)=O [TRIACETIN]	Not Active	Not Active	Not Active	Not Active	Not Active	Not Active										
CN1CCN(CCCN2c3ccccc3Sc3ccc(C(F)(F)F)cc32)CC1 [TRIFLUOPERAZINE]	Not Active	Not Active	Not Active	Not Active	Not Active	Not Active										
TRANSPLATIN	Not Active		Not Active	Not Active	Not Active	Not Active				Not Active	564	Not Active	Not Active	Not Active	Not Active	
ZIRCONIUM(IV) CHLORIDE	Not Active	Not Active	Not Active	Not Active	Not Active	Not Active				Not Active		Not Active	Not Active	Not Active	Not Active	Not Active
